One assay has as its system brain tissue. The assay can be described thus: in vivo selection of brain-binding phage-displayed peptides by panning in mice. Details: species or system BALB/c mice. The settings on record: phage library injected intravenously, 30 min to 1 hour circulation, brain tissue recovered, four rounds. The method, then: FIG. 1 provides the scheme for selection of tissue specific phage in vivo. In this example, candidate brain-binding peptides were selected by panning in BALB/c mice. In round one of selection, the phage library was injected intravenously. After thirty minutes of circulation, the mice were euthanized by carbon dioxide inhalation, perfused with 60 ml of ice cold PBS via the left ventricle, and brain tissue was recovered from the animals. The tissue was minced into small pieces and rinsed repeated in PBS, followed by homogenization in lysis buffer. The tissue homogenate was then incubated with fresh E coli cells and the phage present allowed to infect and lyse the bacteria. Phage were recovered by polyethylene glycol precipitation of the lysate. In subsequent rounds, the phage purified from brain tissues recovered in the previous round was injected intravenously, and tissue was recovered after thirty to sixty minutes of circulation. After the last round, the phages were plated on a lawn of bacteria and a number of pliage plaques were isolated and the DNA sequenced. Of these, a certain percentage represented the dominant selected clone.
To remove unbound, non-specific phage, from the parenchyma of the tissue, the screening protocol of Example 2 was modified. After intravenous administration, the phage were left in circulation for 1 hour (30 minutes in Example 2) to allow more phage clones with CNS binding affinity to reach their target. CNS tissue samples were then homogenized in TBS buffer instead of the lysis buffer which was used at this step previously. Tissue homogenates were pelleted by centrifugation and the supernatant was discarded. The pellet was washed two more times in TBS to remove unbound phage. The pellet was re-homogenized in lysis buffer and the remainder of the selection protocol was completed as described in Example 2. The following brain specific peptides were determined: […]

A further assay relates to skeletal muscle. The settings on record: as described in U.S. Pat. No. 6,329,501; cited from earlier work.

“Also recorded” adds a separate entry of the source.

Regarding GETRAPL [Gly-Glu-Thr-Arg-Ala-Pro-Leu], in the assay on brain tissue, the binding to brain result is reported as “binding to brain”. Further, the “binding to skeletal muscle” value in the assay on skeletal muscle is reported as “capable of binding to skeletal muscle; also recorded: also binds skeletal muscle”.
Take “QPTASLT [Gln-Pro-Thr-Ala-Ser-Leu-Thr, brain specific peptide selected by in vivo phage display]”: in the assay with brain tissue, the binding to brain result is “specific for binding to the brain”.
On the same count and under the same terms, in the case of “SSHTISF [Ser-Ser-His-Thr-Ile-Ser-Phe, brain specific peptide selected by in vivo phage display]” it was “specific for binding to the brain”; in that of “LPLTPLP [Leu-Pro-Leu-Thr-Pro-Leu-Pro, brain specific peptide selected by in vivo phage display]”, “specific for binding to the brain”; in that of “LFTPPVL [Leu-Phe-Thr-Pro-Pro-Val-Leu, brain specific peptide selected by in vivo phage display]”, “specific for binding to the brain”.
On the same count and under the same terms, for “LPHQNNR [Leu-Pro-His-Gln-Asn-Asn-Arg, brain specific peptide selected by in vivo phage display]” the value was “specific for binding to the brain”.
